Key:
Assay in all cases: Test G: turf grass and weed postemergence plant response rating
Creeping bentgrass = format: in vivo, Agrostis stoonoifera L.; details: Creeping bentgrass, postemergence, greenhouse, three weeks, 0-100 scale
Excerpt: (§1) For all of the following biological tests, plant response ratings were based on a 0-100 scale where zero is growth equivalent to that of untreated plants (no plant response) and 100 represents no additional growth occurring after herbicide treatment.
(§2) Plants of the turf grass species: zoysia (Zoysia japonica Steud.), bermudagrass (Cynodon dactylon (L.) Pers.), tall fescue (Festuca arundinacea Shreib.), creeping bentgrass (Agrostis stoonoifera L.), perennial ryegrass (Lolium perenne L.) and hard fescue (Festuca species) were grown under greenhouse conditions for four months. Plants were clipped as needed to plant heights of 5-10 cm. Weeds typically found in turf: annual bluegrass (Poa annua L.), common chickweed (Stellaria media (L.) Vill.), large crabgrass (Digitaria sanguinales (L.) Scop.), dandelion (Taraxacum officinale Weber in Wiggers), goosegrass (Eleusine indica (L.) Gaertn.), henbit (Lamium amplexicaule L.), venice mallow (Hibiscus trionium L.) and purple nutsedge (Cyperus rotundus L.) were also grown under greenhouse conditions so that plants were 5-20 cm tall when they were treated. Herbicide mixtures were formulated, dissolved/dispersed in water containing 0.25% non-ionic surfactant, and sprayed postemergence to these turf grasses and weeds. Treated plants were grown under greenhouse conditions for three weeks before visual evaluations of plant responses were recorded.

Purple nutsedge = format: in vivo, Cyperus rotundus L.; details: Purple nutsedge, postemergence, greenhouse, three weeks, 0-100 scale
Excerpt: as §1, §2

Perennial ryegrass = format: in vivo, Lolium perenne L.; details: Perennial ryegrass, postemergence, greenhouse, three weeks, 0-100 scale
Excerpt: as §1, §2

Tall fescue = format: in vivo, Festuca arundinacea Shreib.; details: Tall fescue, postemergence, greenhouse, three weeks, 0-100 scale
Excerpt: as §1, §2

Venice mallow = format: in vivo, Hibiscus trionium L.; details: Venice mallow, postemergence, greenhouse, three weeks, 0-100 scale
Excerpt: as §1, §2

Bermudagrass = format: in vivo, Cynodon dactylon (L.) Pers.; details: Bermudagrass, postemergence, greenhouse, three weeks, 0-100 scale
Excerpt: as §1
Plants of the turf grass species: zoysia (Zoysia japonica Steud.), bermudagrass (Cynodon dactylon (L.) Pers.), tall fescue (Festuca arundinacea Shreib.), creeping bentgrass (Agrostis stoonoifera L.), perennial ryegrass (Lolium perenne L.) and hard fescue (Festuca species) were grown under greenhouse conditions for four months. Plants were clipped as needed to plant heights of 5-10 cm. […] Herbicide mixtures were formulated, dissolved/dispersed in water containing 0.25% non-ionic surfactant, and sprayed postemergence to these turf grasses and weeds. Treated plants were grown under greenhouse conditions for three weeks before visual evaluations of plant responses were recorded.

Large crabgrass = format: in vivo, Digitaria sanguinales (L.) Scop.; details: Large crabgrass, postemergence, greenhouse, three weeks, 0-100 scale
Excerpt: as §1, §2

Hard fescue = format: in vivo, Festuca species; details: Hard fescue, postemergence, greenhouse, three weeks, 0-100 scale
Excerpt: as §1, §2

Chickweed = format: in vivo, Stellaria media (L.) Vill.; details: Chickweed, postemergence, greenhouse, three weeks, 0-100 scale
Excerpt: as §1, §2

Annual bluegrass = format: in vivo, Poa annua L.; details: Annual bluegrass, postemergence, greenhouse, three weeks, 0-100 scale
Excerpt: as §1, §2

Zoysia grass = format: in vivo, Zoysia japonica Steud.; details: Zoysia grass, postemergence, greenhouse, three weeks, 0-100 scale
Excerpt: as §1, §2

Goosegrass = format: in vivo, Eleusine indica (L.) Gaertn.; details: Goosegrass, postemergence, greenhouse, three weeks, 0-100 scale
Excerpt: as §1, §2

Dandelion = format: in vivo, Taraxacum officinale Weber in Wiggers; details: Dandelion, postemergence, greenhouse, three weeks, 0-100 scale
Excerpt: as §1, §2

Henbit = format: in vivo, Lamium amplexicaule L.; details: Henbit, postemergence, greenhouse, three weeks, 0-100 scale
Excerpt: as §1, §2

[1] = herbicide 80 g ai/ha + Compound 1 125 g ai/ha

Compound: COc1cc(OC)nc(NC(=O)NS(=O)(=O)c2ncccc2C(=O)N(C)C)n1 [Nicosulfuron, nicosulfuron]
- Observed Response, Herbicide mixture with Compound 1 (Creeping bentgrass; [1]): 88
- Observed Response, Herbicide alone (Creeping bentgrass; herbicide 80 g ai/ha): 80
- Observed Response, Herbicide mixture with Compound 1 (Purple nutsedge; [1]): 80
- Observed Response, Herbicide alone (Purple nutsedge; herbicide 80 g ai/ha): 80
- Observed Response, Herbicide mixture with Compound 1 (Perennial ryegrass; [1]): 50
- Observed Response, Herbicide alone (Perennial ryegrass; herbicide 80 g ai/ha): 80
- Observed Response, Herbicide mixture with Compound 1 (Tall fescue; [1]): 60
- Observed Response, Herbicide alone (Tall fescue; herbicide 80 g ai/ha): 60
- Observed Response, Herbicide mixture with Compound 1 (Venice mallow; [1]): 80
- Observed Response, Herbicide alone (Venice mallow; herbicide 80 g ai/ha): 40
- Observed Response, Herbicide mixture with Compound 1 (Bermudagrass; [1]): 0
- Observed Response, Herbicide alone (Bermudagrass; herbicide 80 g ai/ha): 0
- Observed Response, Herbicide mixture with Compound 1 (Large crabgrass; [1]): 100
- Observed Response, Herbicide alone (Large crabgrass; herbicide 80 g ai/ha): 100
- Observed Response, Herbicide mixture with Compound 1 (Hard fescue; [1]): 30
- Observed Response, Herbicide alone (Hard fescue; herbicide 80 g ai/ha): 60
- Observed Response, Herbicide mixture with Compound 1 (Chickweed; [1]): 100
- Observed Response, Herbicide alone (Chickweed; herbicide 80 g ai/ha): 100
- Observed Response, Herbicide mixture with Compound 1 (Annual bluegrass; [1]): 100
- Observed Response, Herbicide alone (Annual bluegrass; herbicide 80 g ai/ha): 100
- Observed Response, Herbicide mixture with Compound 1 (Zoysia grass; [1]): 0
- Observed Response, Herbicide alone (Zoysia grass; herbicide 80 g ai/ha): 25
- Observed Response, Herbicide mixture with Compound 1 (Goosegrass; [1]): 90
- Observed Response, Herbicide alone (Goosegrass; herbicide 80 g ai/ha): 80
- Observed Response, Herbicide mixture with Compound 1 (Dandelion; [1]): 100
- Observed Response, Herbicide alone (Dandelion; herbicide 80 g ai/ha): 100
- Observed Response, Herbicide mixture with Compound 1 (Henbit; [1]): 100
- Observed Response, Herbicide alone (Henbit; herbicide 80 g ai/ha): 100
